From US6864251B2, “Treatment of LTB4-mediated inflammatory disorders with optically-pure (R)-2,3-benzodiazepines” (Vela Pharmaceuticals, Inc., priority 2002, dated 2005)
Several values for one entry are separate records, joined by “and”; a condition that tells them apart may be missing. Equal values may be shown once.

Tests used:
[1] = target: LTB4 receptor (Cavia porcellus, UniProt H0VYV8); test: LTB4 binding assay, displacement of [3H]LTB4, guinea pig spleen membrane
Protocol: Reactions were carried out in a phosphate buffer (pH 7.4) containing NaCl, MgCl2, EDTA, and bacitracin. The reaction volume of 150 μL containing 1.0 mg/mL of the Guinea pig spleen membrane preparation and 1 nM [^3H]LTB4, with or without a competitor, was incubated at 0-4° C. for 2 hours. Competitors included 2,3-benzodiazepines, and LTB4 as a control. The reaction was terminated by rapid vacuum filtration onto glass fiber filters. The filter was washed with cold buffer, dried and placed in a scintillation vial. Radioactivity trapped onto the filters was determined and compared to control values in order to ascertain any interactions of the test compound with the LTB4 binding site.

[2] = tested on: LTB4-induced dermal inflammation; test: Rabbit model of LTB4-induced dermal inflammation, histopathology of intradermal challenge sites; format: in vivo, New Zealand White Rabbits; parameters: key to Inflammation score / Edema score: 0=normal; T=trace; 1=minimal; 2=mild; 3=moderate; 4=marked; conditions: test article IP 60 mg/kg (dexamethasone 0.5 mg/kg), 4 hr after challenge
Protocol: Test compounds were prepared as follows. The vehicle was first prepared by dissolving […] of hydroxypropylmethylcellulose 2910 (HPMC)(Sigma Chemical, St. Louis, Mo.) in 50 mL of 0.9% saline to yield a concentration of 2% HPMC. The three test articles, (R)-, (S)- and racemic tofisopam, were formulated by adding 1 g of each test article to 10 mL of vehicle.
On Day 0, the rabbits were sedated with ketamine/xylazine (35/5 mg/kg, s.c.) and an area of approximately 8×14 cm on the back was closely and carefully clipped to expose the skin, but not inflame or otherwise damage the epithelium. A grid of ten squares each approximately 2.5×2.5 cm was drawn on each animal's back using an indelible marker. The animals were then dosed intraperitoneally with the appropriate test article corresponding to the group. Thirty minutes after dosing with test or control article, the animals were challenged intradermally with the LTB4 or LTB4-aminopropamide (LTB4-AP, a synthetic LTB4 agonist) in the appropriate site as shown in Table 4. Each injection site was marked with an indelible marker in order to identify the exact location of the intradermal injection site. Sixty minutes after challenge, the animals were treated again with tofisopam or control articles. The animals were sacrificed 4 hrs. after challenge, and the intradermal injection sites were excised, fixed in 10% neutral buffered formalin (NBF), and submitted for histopathology. H&E-stained sections were read by a board-certified veterinary pathologist using light microscopy.
All animals were sacrificed 4 hr after challenge. The intradermal challenge sites were excised, placed on unique cardboard squares, fixed in 10% NBF, and submitted for histopathology. The skin sections included the epidermis and the subcutis, down to the back musculature.
The marked skin sections were fixed for at least 48 hours on small cardboard squares. At gross trimming, three levels were cut through marked skin region in order to assure that the injection sites is brought into the plane of section. The skins were gross trimmed, processed by dehydration, embedded in paraffin, sectioned at 3-5 μm, and stained with hematoxylin and eosin.
The tissues were evaluated histopathologically via light microscopy by a board-certified veterinary pathologist. Initially, the identity of the slides was masked in order to perform the initial evaluation and rank the slides. The slides were then unmasked and there was a careful assessment of the lesions and careful comparison of the tofisopam-treated sites to the vehicle and positive control tissues. The lesions were graded based upon the degree of inflammation and the degree of edema. The severity of the inflammation and edema was keyed as follows: 0=normal; T=trace; 1=minimal; 2=mild; 3=moderate; 4=marked.

LTB4 receptor, sequence (H0VYV8 1-348): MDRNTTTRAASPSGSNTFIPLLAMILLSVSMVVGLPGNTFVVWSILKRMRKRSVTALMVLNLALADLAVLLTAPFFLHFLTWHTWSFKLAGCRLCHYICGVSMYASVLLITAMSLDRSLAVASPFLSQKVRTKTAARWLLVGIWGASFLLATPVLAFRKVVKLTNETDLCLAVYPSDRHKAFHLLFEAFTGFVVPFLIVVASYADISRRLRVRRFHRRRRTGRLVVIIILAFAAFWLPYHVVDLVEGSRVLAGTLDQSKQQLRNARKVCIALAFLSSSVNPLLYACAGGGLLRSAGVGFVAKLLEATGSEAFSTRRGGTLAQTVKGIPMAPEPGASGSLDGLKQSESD

Row | Ki [1] [nM] | SMILES | Edema score ([2]; injection site: LTB4 500 ng) | Inflammation score ([2]; injection site: LTB4 500 ng) | Edema score ([2]; injection site: LTB4 1000 ng) | Inflammation score ([2]; injection site: LTB4 1000 ng) | Edema score ([2]; injection site: LTB4 2000 ng) | Edema score ([2]; injection site: LTB-ap 500 ng) | Inflammation score ([2]; injection site: LTB-ap 500 ng) | Edema score ([2]; injection site: LTB-ap 1000 ng) | Inflammation score ([2]; injection site: LTB-ap 1000 ng) | Edema score ([2]; injection site: LTB-ap 2000 ng) | Inflammation score ([2]; injection site: LTB-ap 2000 ng) | Edema score ([2]; injection site: Vehicle 0 ng) | Inflammation score ([2]; injection site: Vehicle 0 ng)
1 | 0.2 to 0.9 | CCCCC/C=C\C[C@@H](O)/C=C/C=C/C=C\[C@@H](O)CCCC(=O)O [LTB4, Leukotriene B4] | – | – | – | – | – | – | – | – | – | – | – | – | –
2 | – | C[C@@H]1C[C@H]2[C@@H]3CCC4=CC(=O)C=C[C@]4(C)[C@@]3(F)[C@@H](O)C[C@]2(C)[C@@]1(O)C(=O)CO [dexamethasone] | 2 and 3 | 2 and 3 | 2 and 3 | 3 | 3 and 2 and 1 | 2 and 3 | 3 and 2 | 3 | 2 | 3 and 1 and 2 | 2 and 1 | 1 and 0 | 1 and 0
